This note sets out measurements from ChEMBL document CHEMBL5576143, “Discovery of CW-3308 as a Potent, Selective, and Orally Efficacious PROTAC Degrader of BRD9” (J Med Chem, 2024).

The term half-life denotes the time needed for the level to fall by half in the phase considered. For orientation: bioavailability means the share of a dose that reaches the circulation, judged against a reference dose that is usually intravenous. For orientation: Papp B→A means the apparent permeability from the basolateral to the apical side of a cell layer. In general, Cmax refers to the highest concentration seen after dosing. One may read the Papp A→B as the apparent permeability from the apical to the basolateral side of a cell layer. The AUC is concentration integrated over time.

Data set [1] can be described thus: in vitro. The following applies: mouse, liver microsomes. In general terms: Microsomes from liver hold many membrane-bound enzymes, among them those of drug oxidation.
The nature of data set [2]: Volume of distribution at steady state in rat at 3 mg/kg, po or 1 mg/kg, iv. Format: ADME, organism-based. The following applies: in vivo.
The nature of data set [3]: in vitro. The conditions noted are these: human, liver microsomes.
Data set [4] in a line: Metabolic stability in monkey liver microsome assessed as half-life at 1 uM preincubated for 5 mins followed by NADPH addition and measured upto 60 mins by LC-MS/MS analysis. Format: ADME, Macaca mulatta. The following applies: rhesus monkey, liver microsomes, time < 65 min.
Data set [5] can be described thus: Oral bioavailability in rat at 3 mg/kg. The format is ADME, organism-based. The conditions noted are these: in vivo.
A short description of data set [6]: Metabolic stability in dog liver microsome assessed as half-life at 1 uM preincubated for 5 mins followed by NADPH addition and measured upto 60 mins by LC-MS/MS analysis. Format: ADME, Canis lupus familiaris. The conditions noted are these: liver microsomes, time < 65 min.
Data set [7] is described as follows: in vitro. The conditions noted are these: rat, liver microsomes.
The nature of data set [8]: Half-life in rat at 3 mg/kg, po or 1 mg/kg, iv. Format: ADME, organism-based. The conditions noted are these: in vivo.
Data set [9] is described as follows: in vitro. The conditions noted are these: human, Caco-2.
The nature of data set [10]: Cmax in rat at 3 mg/kg, po or 1 mg/kg, iv. The format is ADME, organism-based. The conditions noted are these: in vivo.
Data set [11] in a line: in vitro. The conditions noted are these: human, Caco-2. This is another data set of the same source.
The nature of data set [12]: AUC in rat at 3 mg/kg, po or 1 mg/kg, iv. The conditions noted are these: in vivo. The format is ADME, organism-based.

A value given as a limit tells only on which side of the number the result lay.

Regarding `CN1Cc2cc3c(cc2C1)C(=O)N(C1CCC(=O)NC1=O)C3=O` (centres undefined), the half-life at 1 h, 1 µM in the data set “in vitro [1]”, in the data set “in vitro [3]” and in “in vitro [7]” was greater than 1 h each time. Moreover, in data set [2], the Vdss is 5 L/kg. Besides, the half-life at 1 µM is 0.9 h in [4] and greater than 1 h in data set [6]. Further, in [5], the bioavailability was 70%.
Consider `CN1Cc2cc3c(cc2C1)C(=O)N(C1CCC(=O)NC1=O)C3` (centres undefined), for which the half-life in data set [8] was 2.2 h. Further, the half-life at 1 h, 1 µM in the data set “in vitro [1]”, in “in vitro [3]” and in “in vitro [7]” was greater than 1 h each time. In data set [2], this compound showed a Vdss of 2.9 L/kg. The compound further showed a Papp B→A at 2 h, 10 µM in the data set “in vitro [9]” of 6.8 ×10⁻⁶ cm/s. Also, the half-life at 1 µM in data set [4] and in data set [6] was greater than 1 h each time. In data set [5], the bioavailability was determined as 60%. The peak level in data set [10] (Cmax) was 276 ng/mL. In the data set “in vitro [11]”, this compound displayed a Papp A→B at 2 h, 10 µM of 2.55 ×10⁻⁶ cm/s. In data set [12], the AUC was 1500 ng·h/mL.
